Test: Linear voltammetry of substrate and product solutions on screen-printed carbon sensors
Assay type: physicochemical
Conditions: linear voltammetry v=50 mV·s^−1; 5×10^−4 M in PBS (pH 7.5)—0.2% DMSO; vs. Ag/AgCl
Method: FIG. 2 represents the linear voltammograms (v=50 mV·s^−1) of a solution of substrate (p-AP-OG; S) and of product (p-AP-G; dashed curve; P) at 5×10^−4 M in PBS (pH 7.5)—0.2% DMSO.
The electrochemical measurements were carried out by linear voltammetry (v=50 mV·s^−1) with a 910 PSTAT mini potentiostat (Metrohm, France) powered through the USB connection of the computer and controlled by the PSTAT software (version 1.0). To do this, drops of solution of 30-50 μl were deposited on the surface of single-use screen-printed carbon sensors supplied by Dropsens (DRP-110) and connected to the potentiostat via the connector (DRP-DSC). The amperometric detection of the product generated during the reaction catalyzed by Ag85 was always carried out after a step of filtration of the reaction mixture with a filtration device (Microcon 10 kDa, Millipore). All the potentials are measured relative to the Ag/AgCl reference electrode.

Structure (SMILES) | oxidation peak potential
Nc1ccc(O[C@@H]2O[C@H](CO)[C@@H](O)[C@H](O)[C@H]2O)cc1 [p-AP-G, p-aminophenyl-β-D-glucopyranoside] | ~+0.4 V
CCCCCCCC(=O)OC[C@H]1O[C@@H](Oc2ccc(N)cc2)[C@H](O)[C@@H](O)[C@@H]1O [p-AP-OG, p-aminophenyl-6-O-octanoyl-β-D-glucopyranoside] | ~+0.2 V

From patent publication US11293045B2, “Method for electrochemical detection of mycobacteria” (UNIVERSITÉ DE BOURGOGNE, priority 2017, dated 2022)
